In test [1] the target is HPK1 (Homo sapiens, UniProt Q92918). The test can be described thus: HPK1 Biochemical Assay (ADP-Glo luminescence; low ATP 10 μM or high ATP 200 μM). As to conditions: 2 nM HPK1, 10 μM ATP; read-out: Biochemical Potency (low ATP). On the technique in general: ADP-Glo first removes unused ATP, then detects ADP through luciferase.
Test [2] relates to p-SLP-76 (Ser376) in Jurkat cells. The test can be described thus: pSLP76 Cellular Assay (AlphaLISA SureFire Ultra p-SLP-76 (Ser376), anti-CD3 activated Jurkat cells). The class given is cell-based. As to conditions: Homo sapiens; Jurkat cells, anti-CD3 stimulation, pSLP76; read-out: Cellular Potency. Summed up: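 Jurkat cells, serum-starved overnight in Opti-MEM then in HBSS, preincubated 1 h at 37 °C with 22-point 2-fold compound dilutions, then stimulated with anti-CD3 (0.025 mg/ml added solution) for 45 min. Lysate p-SLP-76 (Ser376) measured by AlphaLISA at 570 nm; IC50 from 4-parameter logistic fit.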

Where only a bound is given, the exact number is not on record here.

Chain of HPK1 (Q92918 whole entry, species assumed): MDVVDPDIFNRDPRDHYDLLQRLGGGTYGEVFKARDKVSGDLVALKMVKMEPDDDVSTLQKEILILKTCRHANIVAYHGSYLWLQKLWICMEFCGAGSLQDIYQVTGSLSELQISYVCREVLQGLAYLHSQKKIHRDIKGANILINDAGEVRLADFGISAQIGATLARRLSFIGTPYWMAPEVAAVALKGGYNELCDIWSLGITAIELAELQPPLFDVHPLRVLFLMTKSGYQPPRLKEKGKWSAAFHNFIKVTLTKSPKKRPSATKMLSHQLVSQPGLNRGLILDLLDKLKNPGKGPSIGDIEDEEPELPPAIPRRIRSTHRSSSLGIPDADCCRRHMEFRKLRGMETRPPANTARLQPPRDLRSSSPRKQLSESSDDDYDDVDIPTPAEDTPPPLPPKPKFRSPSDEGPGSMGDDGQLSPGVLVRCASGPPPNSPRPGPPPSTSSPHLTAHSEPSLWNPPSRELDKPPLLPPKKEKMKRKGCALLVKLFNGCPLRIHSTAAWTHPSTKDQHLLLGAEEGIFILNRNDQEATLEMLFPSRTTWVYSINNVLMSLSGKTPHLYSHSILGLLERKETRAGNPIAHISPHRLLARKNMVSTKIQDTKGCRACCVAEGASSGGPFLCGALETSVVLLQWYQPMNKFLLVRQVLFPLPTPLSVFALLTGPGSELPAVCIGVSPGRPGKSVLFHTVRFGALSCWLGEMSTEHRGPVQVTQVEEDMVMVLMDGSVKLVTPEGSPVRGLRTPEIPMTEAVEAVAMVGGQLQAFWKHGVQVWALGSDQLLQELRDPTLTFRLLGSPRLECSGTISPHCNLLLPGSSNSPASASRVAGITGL

Regarding `Cc1ccc(Nc2cc3nc(-c4ncccc4C)sc3cn2)nc1CN1CCC[C@H]1C` [Example 44, 5-Methyl-N-[2-(3-methylpyridin-2-yl)-[1,3]thiazolo[5,4-c]pyridin-6-yl]-6-{[(2R)-2-methylpyrrolidin-1-yl]methyl}pyridin-2-amine], the IC50 in test [1] was less than 100 nM; in test [2] it was greater than 5000 nM.

For the compound `Cc1ccc(Nc2cc3nc(-c4c(F)cccc4F)sc3cn2)nc1CN(C)C` [Example 46, N-[2-(2,6-Difluorophenyl)-[1,3]thiazolo[5,4-c]pyridin-6-yl]-6-[(dimethylamino)methyl]-5-methylpyridin-2-amine], the IC50 is less than 100 nM in test [1] and 1000 to 5000 nM in test [2].

Consider `Cc1ccc(Nc2cc3nc(-c4ncccc4C)sc3cn2)nc1CN1CCC[C@@H]1CO` [Example 49, [(2R)-1-[(3-Methyl-6-{[2-(3-methylpyridin-2-yl)-[1,3]thiazolo[5,4-c]pyridin-6-yl]amino}pyridin-2-yl)methyl]pyrrolidin-2-yl]methanol], for which the IC50 in test [1] was less than 100 nM; in test [2], 1000 to 5000 nM.

For `Cc1ccc(Nc2cc3nc(-c4ncccc4C)sc3cn2)nc1CN1CC[C@@H](C#N)C1` [Example 54, 6 (3R)-1-[(3-Methyl-6-{[2-(3-methylpyridin-2-yl)-[1,3]thiazolo[5,4-c]pyridin-6-yl]amino}pyridin-2-yl)methyl]pyrrolidine-3-carbonitrile], the IC50 in test [1] was less than 100 nM; in test [2] it was greater than 5000 nM.

Turning to `Cc1ccc(Nc2cc3nc(-c4ccnnc4)sc3cn2)nc1CN1CCCC1` [Example 57, 5-Methyl-N-[2-(pyridazin-4-yl)-[1,3]thiazolo[5,4-c]pyridin-6-yl]-6-[(pyrrolidin-1-yl)methyl]pyridin-2-amine], the figures for the IC50 in test [1] and in test [2] were less than 100 nM and 1000 to 5000 nM, respectively.

Regarding `Cc1cccnc1-c1nc2cc(Nc3ccc(Cl)c(CN4CCCC4)n3)ncc2s1` [Example 60], the IC50 in test [1] was less than 100 nM; in test [2] it was greater than 5000 nM.

For the compound `Cc1cccnc1-c1nc2cc(Nc3ccc(N4CCOCC4)c(CN4CCCC4)n3)ncc2s1` [Example 63, N-[2-(3-Methylpyridin-2-yl)-[1,3]thiazolo[5,4-c]pyridin-6-yl]-5-(morpholin-4-yl)-6-[(pyrrolidin-1-yl)methyl]pyridin-2-amine], the values for the IC50 in test [1] and in test [2] were less than 100 nM and 100 to 1000 nM, respectively.

As for `Cc1cccnc1-c1nc2cc(Nc3ccc(C)c(N4C[C@@H](N)C[C@H]4CO)n3)ncc2s1` [Example 65, [(2S,4S)-4-Amino-1-(3-methyl-6-{[2-(3-methylpyridin-2-yl)-[1,3]thiazolo[5,4-c]pyridin-6-yl]amino}pyridin-2-yl)pyrrolidin-2-yl]methanol], the IC50 is less than 100 nM in test [1] and 100 to 1000 nM in test [2].

In the case of `Cc1cccnc1-c1nc2cc(Nc3cccc(N4C[C@@H](N)C[C@H]4CO)n3)ncc2s1` [Example 66, [(2S,4S)-4-Amino-1-(6-{[2-(3-methylpyridin-2-yl)-[1,3]thiazolo[5,4-c]pyridin-6-yl]amino}pyridin-2-yl)pyrrolidin-2-yl]methanol], the IC50 is less than 100 nM in test [1] and 1000 to 5000 nM in test [2].

Take `Cc1cccnc1-c1nc2cc(Nc3ccc(C)c(N4C[C@H](N)C[C@H]4CO)n3)ncc2s1` [Example 69, [(2S,4R)-4-Amino-1-(3-methyl-6-{[2-(3-methylpyridin-2-yl)-[1,3]thiazolo[5,4-c]pyridin-6-yl]amino}pyridin-2-yl)pyrrolidin-2-yl]methanol]: the IC50 in test [1] is less than 100 nM; in test [2] it was greater than 5000 nM.

As for `Cc1cccnc1-c1nc2cc(Nc3cccc(N4C[C@H](N)C[C@H]4CO)n3)ncc2s1` [Example 70, [(2S,4R)-4-Amino-1-(6-{[2-(3-methylpyridin-2-yl)-[1,3]thiazolo[5,4-c]pyridin-6-yl]amino}pyridin-2-yl)pyrrolidin-2-yl]methanol], the IC50 was less than 100 nM in test [1] and 100 to 1000 nM in test [2].

Consider `Cc1cccnc1-c1nc2cc(Nc3ccc(C)c(N4CCC[C@H](N)C4)n3)ncc2s1` [Example 71, 6-[(3S)-3-Aminopiperidin-1-yl]-5-methyl-N-[2-(3-methylpyridin-2-yl)-[1,3]thiazolo[5,4-c]pyridin-6-yl]pyridin-2-amine], for which the figures for the IC50 in test [1] and in test [2] were less than 100 nM and 1000 to 5000 nM, respectively.

As for `Cc1cccnc1-c1nc2cc(Nc3ccc(C)c(N4CC[C@@H](N)C4)n3)ncc2s1` [Example 74, 6-[(3R)-3-Aminopyrrolidin-1-yl]-5-methyl-N-[2-(3-methylpyridin-2-yl)-[1,3]thiazolo[5,4-c]pyridin-6-yl]pyridin-2-amine], the IC50 in test [1] is less than 100 nM; in test [2], greater than 5000 nM.

As for `Cc1cc(NCc2nccn2C)nc(Nc2cc3nc(-c4ccnc(C)c4)sc3cn2)c1` [Example 76, 4-Methyl-N2-[(1-methyl-1H-imidazol-2-yl)methyl]-N6-[2-(2-methylpyridin-4-yl)-[1,3]thiazolo[5,4-c]pyridin-6-yl]pyridine-2,6-diamine], the IC50 in test [1] is less than 100 nM; in test [2], 1000 to 5000 nM.

Take `Cc1cccnc1-c1nc2cc(Nc3cccc(N4C[C@@H]5C[C@H]4CN5)n3)ncc2s1` [Example 78, 6-[(1S,4S)-2,5-Diazabicyclo[2.2.1]heptan-2-yl]-N-[2-(3-methylpyridin-2-yl)-[1,3]thiazolo[5,4-c]pyridin-6-yl]pyridin-2-amine]: the IC50 in test [1] was less than 100 nM; in test [2], 100 to 1000 nM.

As for `COc1cccc(F)c1-c1nc2cc(Nc3cccc(N4CC5CCC4CN5C)n3)ncc2s1` (stereo not drawn) [Example 79, N-[2-(2-Fluoro-6-methoxyphenyl)-[1,3]thiazolo[5,4-c]pyridin-6-yl]-6-{5-methyl-2,5-diazabicyclo[2.2.2]octan-2-yl}pyridin-2-amine], the IC50 is less than 100 nM in test [1] and 1000 to 5000 nM in test [2].

`COc1cccc(F)c1-c1nc2cc(Nc3cccc(N4C[C@@H]5C[C@H]4CN5C)n3)ncc2s1` [Example 80, N-[2-(2-Fluoro-6-methoxyphenyl)-[1,3]thiazolo[5,4-c]pyridin-6-yl]-6-[(1S,4S)-5-methyl-2,5-diazabicyclo[2.2.1]heptan-2-yl]pyridin-2-amine]: the results for the IC50 in test [1] and in test [2] were less than 100 nM and 100 to 1000 nM, respectively.

As for `COc1cccc(F)c1-c1nc2cc(Nc3cccc(N4CCN(C)CC4)n3)ncc2s1` [Example 81, N-[2-(2-Fluoro-6-methoxyphenyl)-[1,3]thiazolo[5,4-c]pyridin-6-yl]-6-(4-methylpiperazin-1-yl)pyridin-2-amine], the IC50 was less than 100 nM in test [1] and 100 to 1000 nM in test [2].

For the compound `c1cc(Nc2cc3nc(-n4cccn4)sc3cn2)nc(N2C[C@@H]3C[C@H]2CN3)c1` [Example 82, 6-[(1S,4S)-2,5-Diazabicyclo[2.2.1]heptan-2-yl]-N-[2-(1H-pyrazol-1-yl)-[1,3]thiazolo[5,4-c]pyridin-6-yl]pyridin-2-amine], the IC50 in test [1] and in test [2] was less than 100 nM each time.

As for `Cc1cccnc1-c1nc2cc(Nc3ccc(F)c(N4C[C@@H]5C[C@H]4CN5)n3)ncc2s1` [Example 83, 6-[(1S,4S)-2,5-Diazabicyclo[2.2.1]heptan-2-yl]-5-fluoro-N-[2-(3-methylpyridin-2-yl)-[1,3]thiazolo[5,4-c]pyridin-6-yl]pyridin-2-amine], the IC50 was less than 100 nM in test [1] and 100 to 1000 nM in test [2].

For `Cc1cccnc1-c1nc2cc(Nc3ccc(C)c(N4C[C@@H]5C[C@H]4CN5)n3)ncc2s1` [Example 84, 6-[(1S,4S)-2,5-Diazabicyclo[2.2.1]heptan-2-yl]-5-methyl-N-[2-(3-methylpyridin-2-yl)-[1,3]thiazolo[5,4-c]pyridin-6-yl]pyridin-2-amine], the IC50 in test [1] is less than 100 nM; in test [2] it was 100 to 1000 nM.

Consider `Cc1cc(-c2nc3cc(Nc4cccc(N5CCNCC5)n4)ncc3s2)ccn1` [Example 85, N-[2-(2-Methylpyridin-4-yl)-[1,3]thiazolo[5,4-c]pyridin-6-yl]-6-(piperazin-1-yl)pyridin-2-amine], for which the figures for the IC50 in test [1] and in test [2] were less than 100 nM and 1000 to 5000 nM, respectively.

On to `Cc1cccnc1-c1nc2cc(Nc3cccc(N4CCNC5CC54)n3)ncc2s1` (stereo not drawn) [Example 87, 6-{2,5-Diazabicyclo[4.1.0]heptan-2-yl}-N-[2-(3-methylpyridin-2-yl)-[1,3]thiazolo[5,4-c]pyridin-6-yl]pyridin-2-amine], for which the values for the IC50 in test [1] and in test [2] were less than 100 nM and 1000 to 5000 nM, respectively.

With `CN1C[C@@H]2C[C@H]1CN2c1cccc(Nc2cc3nc(-c4cccnc4)sc3cn2)n1` [Example 89, 6-[(1S,4S)-5-Methyl-2,5-diazabicyclo[2.2.1]heptan-2-yl]-N-[2-(pyridin-3-yl)-[1,3]thiazolo[5,4-c]pyridin-6-yl]pyridin-2-amine], the IC50 in test [1] was less than 100 nM; in test [2], 100 to 1000 nM.

For `Cc1cccnc1-c1nc2cc(Nc3cccc(N4C[C@@H]5C[C@H]4CN5C)n3)ncc2s1` [Example 90, 6-[(1S,4S)-5-Methyl-2,5-diazabicyclo[2.2.1]heptan-2-yl]-N-[2-(3-methylpyridin-2-yl)-[1,3]thiazolo[5,4-c]pyridin-6-yl]pyridin-2-amine], the IC50 in test [1] was less than 100 nM; in test [2], 100 to 1000 nM.

With `CN1C[C@@H]2C[C@H]1CN2c1cccc(Nc2cc3nc(-c4ncccc4C(F)(F)F)sc3cn2)n1` [Example 92, 6-[(1S,4S)-5-Methyl-2,5-diazabicyclo[2.2.1]heptan-2-yl]-N-{2-[3-(trifluoromethyl)pyridin-2-yl]-[1,3]thiazolo[5,4-c]pyridin-6-yl}pyridin-2-amine], the IC50 is less than 100 nM in test [1] and 100 to 1000 nM in test [2].

On to `CC(C)c1cccnc1-c1nc2cc(Nc3cccc(N4C[C@@H]5C[C@H]4CN5C)n3)ncc2s1` [Example 93, 6-[(1S,4S)-5-Methyl-2,5-diazabicyclo[2.2.1]heptan-2-yl]-N-{2-[3-(propan-2-yl)pyridin-2-yl]-[1,3]thiazolo[5,4-c]pyridin-6-yl}pyridin-2-amine], for which the IC50 in test [1] is less than 100 nM; in test [2], 100 to 1000 nM.

Values taken from US12649751B2 (Arcus Biosciences, Inc., priority 2022, dated 2026).
